Test results as given in patent US11986659B2, “Modulation of neuronal NKCC1 as a therapeutic strategy for spasticity and related disorders” (Research Foundation of the City University of New York, priority 2018, dated 2024).

Assays:
[1] = system: animals with spasticity following SCI; test: Stretch-apparatus test of spasticity (muscle resistance, EMG) in mice with SCI after bumetanide injection; format: in vivo, CD-1 mice
Source text: (§1) Adult female CD-1 mice (n=120 weight, 27-37 g) were used for all of the animal studies performed. A total of 51 animals were used for the long-term stimulation studies that included four groups. Animals with SCI were randomly divided into three groups: a-tsDCS-treated group (n=16), a c-tsDCS-treated group (n=15), and a sham-treated group (n=10), and a non-injured control group (n=10). Subgroups of these animals were also used to study long-term changes in expression for KCC2, pKCC2, NKCC1, and pNKCC1. Injured animals with spasticity were used to test the immediate effect of tsDCS on rate-dependent depression (RDD) (n=6), while the relatively short-term effects of tsDCS on the expression of NKCC1 and pNKCC1 were studied in non-injured animals (n=10). Pharmacological studies involving bumetanide (NKCC1 blocker) were conducted with SCI animals (n=9) and non-injured control animals (n=3). Meanwhile, qPCR studies were conducted with non-injured control animals (n=41). All of the study protocols were approved by the College of Staten Island IACUC committee.
Following administration of a ketamine/xylazine cocktail (90/10 mg/kg, i.p.) to achieve deep anesthesia, a laminectomy at thoracic T10 vertebra was performed to expose the T13 spinal segment. An infinite horizon (IH) spinal cord impactor (IH-0400, Precision Systems & Instrumentation, VA, USA) was used to induce a contusive SCI force. The impact force level was 60 kdyn and was selected based on data collected from exploratory experiments that were conducted with this impactor. In these preliminary studies, contusion injuries were induced with increasing impact forces in order to optimize the SCI contusion force needed to produce spastic mice. Mice impacted at 60 kdyn produced ideal spastic behavior at approximately 2-3 weeks post-injury. Impact was applied by using a standard mouse tip (diameter=1.3 mm). Following the contusion procedure, overlying muscles and skin were sutured and the surgical site was covered with a layer of gentamicin sulfate ointment to prevent infection. Each mouse subsequently received a number and then was placed on a warming pad (30° C.) for recovery.
A computer-controlled stretch device was assembled in our laboratory from a stepper motor (DMX-UMD-23m, ARCUS Technology Inc., CA. USA), a foot presser mounted on a force-displacement transducer (FT03, GRASS Technologies/NATUS, CA, USA) connected to a bridge amplifier (ADInstruments, Colorado Springs, CO, USA), and a mouse holder (FIG. 1). The transducer was permanently fixed to a linear rail-guided carriage (SGB15NUU, ZNT Automatic Technology Co, Zhejiang, China). The rotational movement of the stepper motor is converted into linear displacement at the carriage by using a set of jointed flat-aluminum rods that are connected with swivel hub bearings. Two computer software programs were utilized to control the stepper motor and to perform the online (during) stretch and electromyogram (EMG) recordings. First, a stepper motor control software (DMX-UMD GUI, ARCUS Technology Inc.) was re-written to permit the execution of three consecutively timed stretches, with each stretch separated by two 10-s recovery intervals. The stepper motor was also programmed to provide three different stretch speeds: 18/s, 180/s, and 1800/s, which correspond to 3 RPM, 30 RPM, and 300 RPM, respectively. The second software package used was LabChart-7 bundled with PowerLab data acquisition system software (ADInstruments) which was used to gather and analyze data.
A mouse restraining system was fabricated in our laboratory (FIG. 1) from three components. 1) A clear Plexiglas acrylic tube served as the mouse holding chamber. 2) An internally adjustable support system made of a clear acrylic concave stabilization plate. The location of the plate was able to be adjusted linearly along the length of the chamber via a handle that protruded through a cutout that ran the entire length of the tube. […]

[2] = system: non-injured control animals; test: Stretch response in non-injured control animals after bumetanide injection; format: in vivo, CD-1 mice
Source text: as §1, with “committee. […]” for “committee.”

[3] = 60 mg/kg, 5, 20, 30 and 45 min after injection vs baseline, p<0.001

Q: For CCCCNc1cc(C(=O)O)cc(S(N)(=O)=O)c1Oc1ccccc1 [bumetanide], which reductions in spasticity ([1]; 30 mg/kg, one hour after administration, n=5, data not shown) is on record?
A: moderate reductions in spasticity

Q: And the “corresponding EMG” value [1, 3]?
A: significant reduction

Q: What about the “reduction in peak resistance (reflexive muscle resistance)” value [1, 3] of the same molecule?
A: 34%

Q: And the “background activity and resting muscle tone on slow stretches” value ([1]; 60 mg/kg, thirty min after injection)?
A: reduce background activity and resting muscle tone

Q: And the “spasticity following bumetanide treatment” value ([1]; SCI mice, dose not given)?
A: spasticity was reduced

Q: And the “muscle resistance and concurrent EMG at low speed and high speed (FIG. 9)” value ([1]; following bumetanide injection, n=9 mice, vs baseline 2)?
A: decreases in muscle resistance and concurrent EMG

Q: And the “animals exhibiting a reduced reflexive stretch response” value ([2]; 60 mg/kg, non-injured control animals)?
A: 21%

Q: What about the “reduction in reflexive muscle resistance in controls” value ([2]; after bumetanide injection, controls) of the same molecule?
A: 21 °/0
